Measured values: PMC5408667, “A structural and functional analogue of a Bowman–Birk-type protease inhibitor from Odorrana schmackeri” (Bioscience Reports, 2017)
Entries after “also recorded” stand apart in the source; their conditions may differ. Bridge positions count the residues as written; N and C are the ends. Peptide text beside a SMILES is read from it.

Columns and labels:
[1] = target: Chymotrypsin (Bos taurus, UniProt P00766); assay: Chymotrypsin inhibition assay; format: biochemical
Protocol: Chymotrypsin (10 μl from 0.1 μM stock solution in 1 mM HCl) was added to the wells of a microtitre plate containing substrate (Succinyl–Ala–Ala–Pro–Phe–NHMec, obtained from Bachem, U.K.) (50 μM) and synthetic peptide replicates (0.1–100 μM) in 10 mM phosphate buffer, pH 7.4, containing 2.7 mM KCl and 137 mM NaCl (final volume 210 μl).
(§1) Each determination was carried out in triplicate. The rate of hydrolysis of substrate was monitored continuously, at 37°C, by measuring the rate of increase in fluorescence due to production of 7-amino-4-methylcoumarin (NH2Mec) at 460 nm (excitation 360 nm) in a CytoFluor® multi-well plate reader Series 4000 spectrofluorimeter.
For modest binding inhibition, we first calculated the IC50 from a plot of % inhibition against inhibitor concentration [I]. The data points were fitted to the resulting curve, by non-linear regression analysis, using GraphPad Prism. The IC50 values were then converted into Ki values using the eqn (3), to account for the presence of competing substrate. (3) Ki = IC50/{1 + ([S]/KM)}
This kinetic treatment was applied to the inhibition of tryptase by OSTI and chymotrypsin by [Phe^9]-OSTI. […] The Michaelis constant KM for tryptase against Boc-Phe-Ser-Arg-NHMec was determined to be 227.2 μM, while KM for chymotrypsin against Succinyl–Ala–Ala–Pro–Phe–NHMec was determined to be 38.4 μM. […]

[2] = target: T1, Trypsin (Bos taurus, UniProt P00760); assay: Trypsin inhibition assay (synthetic peptides, Morison plot); format: biochemical; details: substrate Phe-Pro-Arg-NHMec 50 μM, 37°C
T1 construct: gene PRSS1
T1 sequence (P00760 24-246): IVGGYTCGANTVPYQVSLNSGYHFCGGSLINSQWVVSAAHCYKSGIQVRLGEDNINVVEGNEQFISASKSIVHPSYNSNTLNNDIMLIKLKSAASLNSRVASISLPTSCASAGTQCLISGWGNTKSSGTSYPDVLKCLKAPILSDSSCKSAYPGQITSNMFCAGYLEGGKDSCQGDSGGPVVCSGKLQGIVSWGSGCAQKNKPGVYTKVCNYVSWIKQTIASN
Protocol: Trypsin (10 μl from 0.1 μM stock solution in 1 mM HCl), was added to the wells of a microtitre plate containing substrate (Phe-Pro-Arg-NHMec) (50 μM) and synthetic peptide replicates (0.1–100 μM) in 10 mM phosphate buffer, pH 7.4, containing 2.7 mM KCl and 137 mM NaCl (final volume 210 μl).
as §1
For potent, slow, tight-binding inhibition, the Morison equation was used to determine the inhibition constant Ki(app) by fitting the kinetic data to the equation below: (1) Vi/V0 = 1 − {[E]0 + [I] + Ki(app) − ([E]0 + [I] + Ki(app))^2−4 × [E]0 × [I]/2 × [E]0} […]
This kinetic treatment was used for the inhibition of trypsin by OSTI. Since the inhibition studies were performed in the presence of competing substrate, the true Ki value was calculated from Ki(app) using eqn (2). For trypsin, a fixed substrate concentration [S] of 50 μM was used, for these inhibition studies and in a separate experiment (performed using identical buffer and temperature conditions),a value of 73.29 μM was determined for the Michaelis constant KM, for substrate hydrolysis in the absence of OSTI. […]

[3] = target: T2, Tryptase (Homo sapiens, UniProt Q15661); assay: Tryptase inhibition assay; format: biochemical
T2 construct: purchased Calbiochem, U.K
Protocol: Tryptase (2.5 μl from 1 mg/ml stock solution, Calbiochem, U.K.), was added to the wells of a microtitre plate containing substrate (Boc-Phe-Ser-Arg-NHMec, obtained from Bachem, U.K.) (50 μM) and synthetic peptide replicates (0.5, 1, 2 and 4 mM) in tryptase assay buffer, pH 7.6, containing 0.05 M Tris, 0.15 M NaCl and 0.2% (w/v) PEG 6000 (final volume 210 μl).
For modest binding inhibition, we first calculated the IC50 from a plot of % inhibition against inhibitor concentration [I]. The data points were fitted to the resulting curve, by non-linear regression analysis, using GraphPad Prism. The IC50 values were then converted into Ki values using the eqn (3), to account for the presence of competing substrate [15]. (3) Ki = IC50/{1 + ([S]/KM)}
In inhibition studies with both these proteases, their respective substrates were used at a fixed concentration [S] of 50 μM. […] The determination of these KM values was carried out using identical buffer and temperature conditions (37°C) as those employed in the inhibition studies with the two synthetic amphibian peptides.

[4] = Determination of peptide secondary structures using CD analysis; format: physicochemical
Protocol: CD measurements were performed with a JASCO J-815 CD spectrometer (Jasco, Essex, U.K.) at room temperature (20–25°C). Each peptide was dissolved in (a) water and (b) 50% (v/v) trifluoroethanol (TFE)-water to reach a concentration of 50 μM before being transferred and measured in a 0.1 cm high precision quartz cell (Hellma Analytics, Essex, U.K.). The wavelength used in CD spectrometer was from 190 to 240 nm with a scanning speed of 200 nm/min, bandwidth and data pitch are 1 and 0.5 nm respectively. CD data are expressed as the mean molar ellipticity [θ] in deg.cm^2.dmol^−1 in corresponding wavelength (nm), which is calculated using the measured ellipticity (θ, in medg) with the equation [θ] = θ/(10 × c × l), ‘c’ refers to the molar concentration of the sample (mol/l) and the term ‘l’ is the cuvette path length (cm). DichroWeb webserver (http://dichroweb.cryst.bbk.ac.uk/html/home.shtml) was used to estimate the α-helix and β-sheet content.
Figure 8 Circular dichroism spectra of OSTI and [Phe^9]-OSTI The CD spectra recorded for OSTI and [Phe^9]-OSTI (100 μM) in (A) 10 mM ammonium acetate water solution and (B) 50% 2,2,2-TFE/10 mM ammonium acetate water solution.

[5] = tested on: chymase; details: Lineweaver–Burk double-reciprocal plot; ref [24]; cited from earlier work
Text: Tryptase and chymase are atypical serine proteases that are synthesized, stored and released by mast cells. Due to their close involvement in the pathogenesis of inflammation and some other diseases, there have been reports of BBIs possibly having utility in the treatment of such conditions.

[6] = 50% TFE-water, CD 190–240 nm, room temperature (20–25°C), DichroWeb
[7] = aqueous solution, CD 190–240 nm, room temperature (20–25°C), DichroWeb

T2 sequence (Q15661 31-275): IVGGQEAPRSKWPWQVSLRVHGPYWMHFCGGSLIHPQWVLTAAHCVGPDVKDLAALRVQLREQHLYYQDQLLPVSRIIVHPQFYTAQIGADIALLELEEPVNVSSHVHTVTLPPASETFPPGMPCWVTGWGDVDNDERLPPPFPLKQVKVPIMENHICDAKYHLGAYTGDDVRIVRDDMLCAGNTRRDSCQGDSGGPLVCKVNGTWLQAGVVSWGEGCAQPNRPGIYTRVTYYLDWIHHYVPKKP

## Succinyl–Ala–Ala–Pro–Phe–NHMec [fluorogenic chymotrypsin substrate, reference compound]
[1]; substrate of chymotrypsin, identical buffer and temperature conditions (37°C), read-out: Michaelis constant KM, chymotrypsin
  Km: 38.4 µM

## CC[C@H](C)[C@@H]1NC(=O)[C@H](CO)NC(=O)[C@H](CCCCN)NC(=O)[C@H]([C@@H](C)O)NC(=O)[C@H](Cc2c[nH]c3ccccc23)NC(=O)[C@@H](NC(=O)CNC(=O)[C@H](CCCCN)NC(=O)[C@H](CC(C)C)NC(=O)[C@H](C)NC(=O)[C@H](C)N)CSSC[C@@H](C(=O)N[C@@H](Cc2ccccc2)C(N)=O)NC(=O)[C@@H]2CCCN2C(=O)[C@H](CCCCN)NC(=O)[C@@H]2CCCN2C(=O)[C@@H]2CCCN2C1=O [OSTI, AALKGCWTKSIPPKPCF-amide] (H-AALKGCWTKSIPPKPCF-NH2; disulfide 6-16; N-terminus assumed)
[2]
  inhibition kinetics / mechanism from progress curves: reversible, slow-binding kinetics; also recorded: two-step complexing mechanism
[3]; progress curves, OSTI 0–17.4 μM
  tryptase inhibition (in words): moderate inhibitor
[4]; 50% TFE-water, CD
  β-sheet secondary structure (in words): low percentage of β-sheet secondary structure
[4]; [6]
  random coil content: 47%
  α-helix content: 8%
  β-sheet content: 45%
[4]; aqueous solution, CD
  canonical β-turn motif: did not display canonical β-turn motif
[4]; [7]
  random coil content: 42%
  β-sheet content: 51%

## Boc-Phe-Ser-Arg-NHMec [fluorogenic tryptase substrate, reference compound]
[3]; substrate of tryptase, identical buffer and temperature conditions (37°C), read-out: Michaelis constant KM, tryptase
  Km: 227 µM

## CC[C@H](C)[C@@H]1NC(=O)[C@H](CO)NC(=O)[C@H](Cc2ccccc2)NC(=O)[C@H]([C@@H](C)O)NC(=O)[C@H](Cc2c[nH]c3ccccc23)NC(=O)[C@@H](NC(=O)CNC(=O)[C@H](CCCCN)NC(=O)[C@H](CC(C)C)NC(=O)[C@H](C)NC(=O)[C@H](C)N)CSSC[C@@H](C(=O)N[C@@H](Cc2ccccc2)C(N)=O)NC(=O)[C@@H]2CCCN2C(=O)[C@H](CCCCN)NC(=O)[C@@H]2CCCN2C(=O)[C@@H]2CCCN2C1=O [[Phe^9]-OSTI, AALKGCWTFSIPPKPCF-amide] (H-AALKGCWTFSIPPKPCF-NH2; disulfide 6-16)
[1]; substrate Succinyl–Ala–Ala–Pro–Phe–NHMec 50 μM, 10 mM phosphate buffer pH 7.4, 2.7 mM KCl, 137 mM NaCl, 37°C, from IC50 with KM 38.4 μM, mean ± S.E.M. of three independent experiments, each performed in duplicate
  Ki: 1000 ± 100 nM

B1: soybean BBI: soybean Bowman–Birk protease inhibitor, two-headed protease inhibitor (protein, UniProt P01055 40-110, looked up)
Bowman-Birk type proteinase …: DDESSKPCCDQCACTKSNPPQCRCSDMRLNSCHSACKSCICALSYPAQCFCVDITDFCYEPCKPSEDDKEN
[5]
  mechanism of chymase inhibition: non-competitive mechanism
